Measurements: the supplement of paper PMC11061612

Tests used:
Assay in all cases: combination Emax (second highest fraction inhibited in the dose matrix, 72 h); higher = more inhibition; extreme values may be limits of the assay
[1] = system: CAL-78 (Chondrosarcoma)
Method in brief: (§1)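 Cell lines in DMEM/F12 or RPMI with 10% FBS were plated in 1536-well plates, held 24 hours at 37°C, 5% CO2, then given two-drug dose matrices for 72 hours (DMSO typically 0.2%). Viability was read by CellTiter-Glo 2.0 luminescence and scaled as inhibition from 0 (vehicle wells) to 1 (blank wells). Combination Emax is the second-highest inhibition in the matrix; Bliss excess is observed combination effect minus expected EA + EB − EA·EB, EA and EB being single-agent effects.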

[2] = system: COR-L23 (Non-Small Cell Lung Carcinoma)
Method in brief: as §1

[3] = system: CTV-1 (T-Lymphoblastic Leukemia)
Method in brief: as §1

[4] = system: EM-2 (Chronic Myelogenous Leukemia)
Method in brief: as §1

[5] = system: HPAC (Pancreatic Carcinoma)
Method in brief: as §1

[6] = system: J82 (Bladder Carcinoma)
Method in brief: as §1

[7] = system: JiyoyeP-2003 (Burkitt's Lymphoma)
Method in brief: as §1

[8] = system: KATOIII (Gastric Carcinoma)
Method in brief: as §1

[9] = system: MDA-MB-157 (Breast Carcinoma)
Method in brief: as §1

[10] = system: MFH-ino (Other Solid Carcinomas)
Method in brief: as §1

[11] = system: NCI-H1299 (Non-Small Cell Lung Carcinoma)
Method in brief: as §1

[12] = system: NCI-H1694 (Small Cell Lung Carcinoma)
Method in brief: as §1

[13] = system: NCI-H2595 (Mesothelioma)
Method in brief: as §1

[14] = system: OCI-AML2 (Acute Myeloid Leukemia)
Method in brief: as §1

[15] = system: SK-N-FI (Neuroblastoma)
Method in brief: as §1

[16] = system: SNU-C5 (Colorectal Carcinoma)
Method in brief: as §1

[17] = system: SW1783 (Low Grade Glioma)
Method in brief: as §1

[18] = system: SW1990 (Pancreatic Carcinoma)
Method in brief: as §1

[19] = system: TE-5 (Esophageal Squamous Cell Carcinoma)
Method in brief: as §1

[20] = system: U-266 (Plasma Cell Myeloma)
Method in brief: as §1

Row | Compound | combination Emax [1] | combination Emax [2] | combination Emax [3] | combination Emax [4] | combination Emax [5] | combination Emax [6] | combination Emax [7] | combination Emax [8] | combination Emax [9] | combination Emax [10] | combination Emax [11] | combination Emax [12] | combination Emax [13] | combination Emax [14] | combination Emax [15] | combination Emax [16] | combination Emax [17] | combination Emax [18] | combination Emax [19] | combination Emax [20]
1 | CC1(C)CCC(CN2CCN(c3ccc(C(=O)NS(=O)(=O)c4ccc(NCC5CCOCC5)c([N+](=O)[O-])c4)c(Oc4cnc5[nH]ccc5c4)c3)CC2)=C(c2ccc(Cl)cc2)C1 [Venetoclax] + CN(C)CCCOc1ccc(-c2ccc3ncc4c(c3c2)n(C2CCOCC2)c(=O)n4C)cn1 [AZD0156] (first compound max 1 µM, 7x7, partner max 1 µM) | 0.248 | 0.147 | 0.0786 | 0.174 | 0.26 | 0.186 | 0.189 | 0.154 | 0.596 | 0.171 | 0.214 | 0.14 | 0.177 | 0.993 | 0.217 | 0.185 | 0.24 | 0.674 | 0.271 | 0.56
2 | CC1(C)CCC(CN2CCN(c3ccc(C(=O)NS(=O)(=O)c4ccc(NCC5CCOCC5)c([N+](=O)[O-])c4)c(Oc4cnc5[nH]ccc5c4)c3)CC2)=C(c2ccc(Cl)cc2)C1 [Venetoclax] + C[C@@H](Nc1cc(F)cc(F)c1)c1cc(C(=O)N(C)C)cc2c(=O)cc(N3CCOCC3)oc12 [AZD8186] (first compound max 1 µM, 7x7, partner max 3 µM) | 0.212 | 0.054 | 0.372 | 0.256 | 0.211 | 0.14 | 0.527 | 0.142 | 0.546 | 0.0981 | 0.149 | 0.376 | 0.163 | 1 | 0.243 | 0.166 | 0.336 | 0.452 | 0.375 | 0.471
3 | COc1cc2ncnc(Nc3ccc(F)c(Cl)c3)c2cc1OCCCN1CCOCC1 [Gefitinib] + CC(C)n1c(=O)n(C)c2cnc3cc(F)c(-c4ccc(OCCCN5CCCCC5)nc4)cc3c21 [AZD1390] (first compound max 10 µM, 7x7, partner max 0.3 µM) | 0.194 | 0.0639 | 0.785 | 0.174 | 0.222 | 0.139 | 0.119 | 0.353 | 0.125 | 0 | 0.0669 | 0.19 | 0.129 | 0.083 | 0.175 | 0.0876 | 0.0328 | 0.213 | 0.15 | 0.124
4 | CCN(CCO)CCCOc1ccc2c(Nc3cc(CC(=O)Nc4cccc(F)c4)[nH]n3)ncnc2c1 [AZD2811] + C[C@@H]1COCCN1C2=NC(=NC(=C2)C3(CC3)[S@](=N)(=O)C)C4=C5C=CNC5=NC=C4 [AZD6738] (first compound max 1 µM, 7x7, partner max 10 µM) | 0.534 | 0.511 | 0.84 | 0.968 | 0.583 | 0.184 | 0.93 | 0.424 | 0.894 | 0.529 | 0.642 | 0.73 | 0.21 | 0.984 | 0.687 | 0.755 | 0.321 | 0.513 | 0.476 | 0.426
5 | Cc1c2c(nn1C)CSCc1cc(n(C)n1)CSc1cc(c3ccccc3c1)OCCCc1c(C(=O)O)n(C)c3c-2c(Cl)ccc13 [AZD5991] + Cc1cc2ncnn2cc1Nc1ncc2c(n1)n(C1CCOCC1)c(=O)n2C [AZD7648] (first compound max 1 µM, 7x7, partner max 10 µM) | 0.782 | 0.131 | 0.29 | 0.446 | 0.254 | 0.187 | 0.784 | 0.178 | 0.708 | 0.348 | 0.34 | 0.998 | 0.291 | 0.967 | 0.414 | 0.267 | 0.256 | 0.218 | 0.356 | 0.945
6 | Cn1cnc2c(F)c(Nc3ccc(Br)cc3Cl)c(C(=O)NOCCO)cc21 [Selumetinib] + CCN(CCO)CCCOc1ccc2c(Nc3cc(CC(=O)Nc4cccc(F)c4)[nH]n3)ncnc2c1 [AZD2811] (first compound max 10 µM, 7x7, partner max 1 µM) | 0.267 | 0.467 | 0.291 | 0.88 | 0.906 | 0.153 | 0.235 | 0.429 | 0.215 | 0.273 | 0.363 | 0.385 | 0.169 | 1 | 0.455 | 0.436 | 0.0665 | 0.245 | 0.186 | 0.594
7 | Cc1c2c(nn1C)CSCc1cc(n(C)n1)CSc1cc(c3ccccc3c1)OCCCc1c(C(=O)O)n(C)c3c-2c(Cl)ccc13 [AZD5991] + C[C@@H]1COCCN1C2=NC(=NC(=C2)C3(CC3)[S@](=N)(=O)C)C4=C5C=CNC5=NC=C4 [AZD6738] (first compound max 1 µM, 7x7, partner max 10 µM) | 0.796 | 0.57 | 0.781 | 0.98 | 0.683 | 0.389 | 0.965 | 0.373 | 0.966 | 0.524 | 0.71 | 1 | 0.299 | 1 | 0.815 | 0.795 | 0.441 | 0.491 | 0.494 | 0.95
